# Measured values published in patent US4508728A, “Method of treating inflammatory diseases” (priority 1984, dated 1985).
# What was measured:
# dermatitis = assay: Clinical Case No. 9: various types of dermatitis; type: in vivo, human; parameters: key to Effect: -: Non effective; +: Effective; ++: Remarkably effective
# From the text: 0.5% homocarnosine in the form of an ointment was applied to the following patients suffering from various types of dermatitis.
# granulation = assay: Granulation formation, formalin filter paper method (FFP method), with quantitative analysis of hydroxyprolin; type: in vivo, rat (Wister strain male); conditions: for Hydroxyproline / Wet weight of granulation: once daily for 7 days
# From the text: The promotive action of granulation by homocarnosine was examined by a routine formalin filter paper method (FFP method) and the quantitative analysis of hydroxyprolin. For experimental purposes, use was made of groups of 5 or 6 six-week old Wister strain male rats weighing around 170 g each. The hair was sheared from the backs of these animals using clippers and under ether anesthesia they were given an incision of about 1 cm by a shap surgical knife along the dorsal median line. A piece of filter paper (No. 26 product by Toyo Filter Paper Co.) was cut into circles having a diameter of 6.7 mm which were immersed in a 7% formalin solution. In each rat, these filter paper circles, 4 altogether, were inserted underneath the skin of the right and left scapular areas and under the skin about 4 cm to the rear or these areas, two circles on the right side and two on the left side. A dose of penicillin was given to prevent the possibility of infective suppuration subcutaneously and the incised portion was sutured by use of clips. On the second day after the insertion of formalin immersed filter paper, the sutures were removed and on the seventh day they were put to death under ether anesthesia by cutting the carotid vessels, from which the mass of granulations that had been formed by formalin immersed filter paper was taken out. After the entire granular mass containing filter paper was measured for wet weight, the mass from the left scapular area was used for the quantitative analysis of hydroxyprolin. Homocarnosine was prepared in an isotonic solution and was injected into the animals either subcutaneously or peritoneally once daily for seven days after the suture. When an oral administration was needed, it was made in a 15% solution and was poured into the esophagus. The mass of granulations freed from the filter paper was defatted by ethanol-ether and after being rendered in the gelatin state by an autoclave it was added with concentrated hydrochloric acid and was hydrolyzed overnight at a temperature of 105° to 110° C. After it was thickened and dried at 105° to 110° C., the product was added with 0.02N hydrochloric acid and its hydroxyprolin was quantified by a Hitachi-835 amino acid automatic analyzer in an effort to estimate the amount of collagen that had been synthesized.
# aftha stomatitis = assay: Clinical Case No. 2: aftha stomatitis; type: in vivo, human; parameters: key: The patients in whom the pain disappeared immediately after injection of homocarnosine solution with no subsequent pain complaints on the following day, and the ulcerated area had shrunk postoperatively were assessed as favorable ++; conditions: 0.1 ml of 0.5% solution injected
# Method: Patients who complained of the aftha stomatitis were injected with 0.5% homocarnosine solution.
# The patients in whom the pain disappeared immediately after injection of homocarnosine solution with no subsequent pain complaints on the following day, and the ulcerated area had shrunk postoperatively were assessed as favorable ++.
# dental extraction wounds = assay: Clinical Case No. 1: dental extraction wound; type: in vivo, human; parameters: key to Cure (Wound Healing): ++: Found to be highly effective compared with ordinary therapy.; +: Effective; -: Noneffective; key to Postoperative pains, 2 hours / Postoperative pains, 12 hours / Postoperative pains, 24 hours: -: No subjective pains.; ±: Though subjective pains were present, no analgesic was used.; +: Subjective pains and an analgesic was administered
# Method: 0.5% homocarnosine injection solution was administered to the wound brought about by a dental extraction.
# hemorrohoid = assay: Clinical Case No. 7: hemorrhoid; type: in vivo, human; parameters: key: -: Non effective; +: Effective; ++: Remarkably effective; conditions: suppository 10 mg
# Method: 1.7 g suppository, one suppository containing 10 mg homocarnosine, was used for the following patients suffering from hemorrohoid.
# *Conjointly administered with 0.5% homocarnosine ointment.
# angulus infectiosus = assay: Clinical Case No. 3: angulus infectiosus; type: in vivo, human; parameters: key: those cases in which the wounds became closed on the day following homocarnosine administration were judged as ++; those in which three applications were further needed before favorable results were obvious were judged as +
# From the text: 0.5% homocarnosine in the form of a paste was applied in cases of angulus infectiosus in a dosage of 0.8 g on the basis of three times daily.
# In assessing the effect of treatment, those cases in which the wounds became closed on the day following homocarnosine administration were judged as ++ and those in which three applications were further needed before favorable results were obvious were judged as +.
# cervical erosion = assay: Clinical Case No. 5: cervical erosion; type: in vivo, human; conditions: suppository 20 mg
# Method: 1.7 g suppository, one suppository containing 20 mg homocarnosine, was used for the following patients suffering from cervical erosion.
# decubital ulcer = assay: Clinical Case No. 6: decubital ulcer; type: in vivo, human; parameters: key: -: Non effective; +: Effective; ++: Remarkably effective
# From the text: 1% homocarnosine ointment was applied to the cases of decubital ulcer as follows.
# herpes zoster = assay: Clinical Case No. 4: herpes zoster; type: in vivo, human; conditions: person
# From the text: 5% homocarnosine paste was applied to a case of herpes zoster.
# Region: The herpes zoster extended from the lower part of right breast to the side of body.
# Course of the complaint: The patient came for consultation after three days of subjective complaint. 1 g of 5% homocarnosine paste was applied to the diseased region.
# [1] = tested on: inflammation of respiratory tract; assay: Clinical Case No. 8: inflammation of respiratory tract, nebulizer; type: in vivo, human; parameters: key: -: Non effective; +: Effective; ++: Remarkably effective; conditions: 0.1% solution
# From the text: 0.1% homocarnosine solution in physiological saline was used for the following patients suffering from inflammation of respiratory tract with the aid of nebulizer.
# surgical wounds = assay: Wound healing: tensile strength of sutured surgical incision on the 7th day; type: in vivo, rat (Wister strain male); conditions: for Tensile Strength, % of control / Tensile Strength, X ± S.E.: daily for 7 days
# Method: The healing effect of surgical wounds by homocarnosine was assessed in the following manner. Six-week old Wister strain male rats weighing around 170 g each were used. The rats which had their backs denuded over an extensive area by clippers were given an incision of about 4 cm by a sharp surgical knife along the dorsal medial line under ether anesthesia. A dosage of penicillin was administered to prevent the possibility of infective suppuration and the incision was uniformly sutured with silk threads at 3 spots. Homocarnosine was made into isotonic solution which was subcutaneously injected every day into 8 places on both sides of the incision equally for 7 days. Physiologic saline was employed as a control. The threads were removed 4 days after the formation of the incisions and the experimental animals were put to death on the 7th day under ether anesthesia, and 3 pieces of dosal skin, 3 cm in length and 1 cm in width each, were surgically cut off in such manner that the incision line lay at the middle of the piece. One side of each piece of skin was fixed and the other was pulled and the force required to separate the skin at the point the incision had been made was taken to indicate the tensile strength.
# Solubility in water = type: physicochemical
# [2] = case 1, horizontal impaction, 0.3 ml of 0.5% injection solution
# [3] = case 2, alveolar osteitis, 0.3 ml of 0.5% injection solution
# [4] = case 3, traumatic bone fracture, 0.1 ml of 0.5% injection solution
# [5] = case 4, dental root cyst, 0.2 ml of 0.5% injection solution
# [6] = case 5, alveolar osteitis, 0.3 ml of 0.5% injection solution
compound,measurement,setting,value
"NCCCC(=O)N[C@@H](Cc1cnc[nH]1)C(=O)O [Homocarnosine, L-histidinyl-γ-aminobutylic acid]",Effect,"dermatitis; case 1, allergic dermatitis, 0.5% ointment 1.0 g twice daily",++
same,Effect,"dermatitis; case 2, geriatric itchiness, 0.5% ointment 0.5 g before sleeping",++
same,Partial ulcer recovery (in words),"dermatitis; case 2, geriatric itchiness, 0.5% ointment 0.5 g, partial, after one application",ulcer recovery was noted
same,Effect,"dermatitis; case 3, eczema, 0.5% ointment 1.0 g twice daily for 2 days",++
same,Effect,"dermatitis; case 4, burn (back of left hand), 0.5% ointment 1.0 g once daily for 4 days",++
same,Hydroxyproline,"granulation; 3 mg/kg i.p., 7 granuloma",97.8 ± 10.1 % of control
same,Wet weight of granulation,"granulation; 3 mg/kg i.p., 18 granuloma",96.1 ± 5.6 % of control
same,Hydroxyproline,"granulation; 10 mg/kg i.p., 9 granuloma",127.6 ± 14.5 % of control
same,Wet weight of granulation,"granulation; 10 mg/kg i.p., 20 granuloma, p < 0.01",121.3 ± 5.7 % of control
same,Hydroxyproline,"granulation; 30 mg/kg i.p., 8 granuloma",123.9 ± 8.0 % of control
same,Wet weight of granulation,"granulation; 30 mg/kg i.p., 19 granuloma, p < 0.025",126.6 ± 7.3 % of control
same,Wet weight of granulation,"granulation; 50 mg/kg i.p., 20 granuloma",133.7 ± 7.2 % of control
same,Wet weight of granulation,"granulation; 70 mg/kg i.p., 24 granuloma",131.7 ± 7.8 % of control
same,Wet weight of granulation,"granulation; 90 mg/kg i.p., 20 granuloma",135.6 ± 7.2 % of control
same,Granulation formation (in words),"granulation; 10, 30, 50, 70 and 90 mg/kg (i.p.)",effective in promoting granulation formation
same,Hydroxyprolin amount (in words),granulation; relative to wet weight of granulations,increased in proportion to an increase in the wet weight of granulations
same,Effect,"aftha stomatitis; case 1, isolative aphtha",++
same,Effect,"aftha stomatitis; case 2, tip of the tongue, person",++
same,Effect,"aftha stomatitis; case 3, lower surface of the tongue, person",++
same,Cure (Wound Healing),dental extraction wounds; [2],++
same,"Postoperative pains, 2 hours",dental extraction wounds; [2],-
same,"Postoperative pains, 12 hours",dental extraction wounds; [2],±
same,"Postoperative pains, 24 hours",dental extraction wounds; [2],-
same,Cure (Wound Healing),dental extraction wounds; [3],++
same,"Postoperative pains, 2 hours",dental extraction wounds; [3],-
same,"Postoperative pains, 12 hours",dental extraction wounds; [3],-
same,"Postoperative pains, 24 hours",dental extraction wounds; [3],-
same,Cure (Wound Healing),dental extraction wounds; [4],++
same,"Postoperative pains, 2 hours",dental extraction wounds; [4],-
same,"Postoperative pains, 12 hours",dental extraction wounds; [4],-
same,"Postoperative pains, 24 hours",dental extraction wounds; [4],-
same,Cure (Wound Healing),dental extraction wounds; [5],++
same,"Postoperative pains, 2 hours",dental extraction wounds; [5],-
same,"Postoperative pains, 12 hours",dental extraction wounds; [5],+
same,"Postoperative pains, 24 hours",dental extraction wounds; [5],-
same,Cure (Wound Healing),dental extraction wounds; [6],++
same,"Postoperative pains, 2 hours",dental extraction wounds; [6],-
same,"Postoperative pains, 12 hours",dental extraction wounds; [6],-
same,"Postoperative pains, 24 hours",dental extraction wounds; [6],-
same,Effect,"hemorrohoid; case 1, ractal bleeding, 1 tablet daily for 4 days, conjointly with 0.5% homocarnosine ointment",++
same,Effect,"hemorrohoid; case 2, inner hemorrhoids, 1 tablet daily for 14 days",++
same,Effect,"angulus infectiosus; person five, right, 0.5% paste 0.8 g × 3",++
same,Effect,"angulus infectiosus; person four, right and left, 0.5% paste 0.8 g × 6",+
same,Effect,"angulus infectiosus; person one, right, 0.5% paste 0.8 g × 3",++
same,Effect,"angulus infectiosus; person three, right, 0.5% paste 0.8 g × 3",++
same,Effect,"angulus infectiosus; person two, right and left, 0.5% paste 0.8 g × 6",+
same,Effect,"angulus infectiosus; person, left, 0.5% paste 0.8 g × 3",++
same,Effect (in words),"cervical erosion; case 1, C II, 2 tablets in one day",Cured
same,Effect (in words),"cervical erosion; case 2, C IIIa, 1 tablet daily for 7 days",Cured
same,Effect (in words),"cervical erosion; case 3, C IIIb, 2 tablets daily for 7 days",Cured
same,Effect (in words),"cervical erosion; case 4, C IIIc, 2 tablets daily for 14 days",Cured
same,Effect,"decubital ulcer; case 1, back (2 × 4 cm), 1% ointment 0.5-1.0 g once daily for 4 days",++
same,Effect,"decubital ulcer; case 2, nates (2 × 3 cm), 1% ointment 0.5-1.0 g once daily for 8 days",++
same,Relapse,herpes zoster; 1 g of 5% paste,no relapse of the symptom
same,Pains,"herpes zoster; 1 g of 5% paste, in about one hour",the pains disappeared completely
same,Cysts,"herpes zoster; 5% paste, 1 g five times daily",discolored and dry
same,Herpes symptom,"herpes zoster; 5% paste, 1 g five times daily",cured after seven days
same,Effect,"[1]; case 1, allergic rhinitis, 0.8 ml × 2",++
same,Effect,"[1]; case 2, inflamed respiratory tract, 1.0 ml × 1",++
same,Effect,"[1]; case 3, inflamed respiratory tract, 1.0 ml × 3",++
same,Effect,"[1]; case 4, tonsillitis, 1.0 ml × 3",++
same,Effect,"[1]; case 5, asthma, 1.0 ml twice daily for 10 days",++
same,"Tensile Strength, % of control","surgical wounds; 0.06 mg/rat i.d., 18 skins",96.1 % of control
same,"Tensile Strength, X ± S.E.","surgical wounds; 0.06 mg/rat i.d., 18 skins",436.8 ± 27.6
same,"Tensile Strength, % of control","surgical wounds; 0.6 mg/rat i.d., 15 skins",108.6 % of control
same,"Tensile Strength, X ± S.E.","surgical wounds; 0.6 mg/rat i.d., 15 skins",493.3 ± 27.5
same,"Tensile Strength, % of control","surgical wounds; 6.0 mg/rat i.d., 18 skins",118.8 % of control
same,"Tensile Strength, X ± S.E.","surgical wounds; 6.0 mg/rat i.d., 18 skins, p < 0.01",539.6 ± 41.5
same,"Effect on surgical wounds, tensile strength on the 7th day (in words)","surgical wounds; subcutaneous, 0.6 and 6.0 mg/rat",efficacy is indicated by the tensile strength of wounds on the 7th day
same,Solubility in water,Solubility in water,readily soluble in water
